Where two headings read alike, the source gives them in different places.
How the values were obtained:
TNF-α = experiment: Lipopolysaccharide induced TNF-α production in Balb/cJ mice; format: in vivo; conditions: LPS stimulated Balb/cJ mice, 10 mg/kg b.w. intraperitoneally, plasma 90 min after challenge
Description: Male Balb/cJ mice (Iffa Credo, France), 18 animals weighing 25-33 g were randomly grouped (7 animals were treated with the test compounds, 7 were in positive control and 4 in negative control). Substances, as well as vehiculum [0.125% carboxymethyl-cellulose (Sigma, USA)], were administered intraperitoneally. Substances were administered in the dose of 10 mg/kg b.w. Administered volume was 10 mL/kg b.w. Thirty minutes later, lipopolysaccharide (LPS) (Sigma, USA) solution in sterile saline at concentration and volume of 25 μg/0.2 mL of sterile saline/mouse was intraperitoneally administered to each animal except those in negative control. Ninety minutes after the challenge all animals were bled to death by puncturing a carotis communis. Plasma concentration of TNF-α was determined by sandwich ELISA, using capture and detection antibodies (R&D, USA) according to manufacturer's recommendations. Results are presented in the following table as % of inhibition of TNF-α production in comparison to positive control (challenged but not treated animals).

Male BALB/cJ mice = experiment: Lung neutrophilia induced by bacterial lipopolysaccharide in male BALB/cJ mice; format: in vivo; conditions: single 5 mg dose i.p., intranasal LPS, BALF about 24 hours after LPS, compared to positive control
Description: Male BALB/cJ mice (Iffa Credo, France), with average weight ˜30 g were randomly grouped (n=7 in testing group, 8 in positive control, 7 in negative control). Mice were administered intraperitoneally (i.p.) a single 5 mg dose of test compound. Two hours after administration, 2 μg of bacterial lipopolysaccharide (LPS), dissolved in PBS in a volume of 60 μL, was intranasally administered to all experimental groups except the negative control group, which received the same volume (60 μL) of vehicle PBS. Animals were sacrificed approximately 24 hours after application of LPS in order to obtain bronchoalveolar lavage fluid (BALF), which was used to determine concentrations of IL-6 and TNF-α, absolute number of cells, and the percentage of neutophils in BALF. Results are expressed as percentage of decrease of total cell number, relative number of neutrophils, and TNF-α and IL-6 concentration in BALF of treated animals compared to positive control (LPS stimulated, but untreated animals).
Besides accumulation of inflammatory cells in BALF, the extent and anatomic site of pulmonary inflammation induced by LPS was assessed 24 hours after PBS or LPS exposure. Accumulation of granulocytes and mononuclear cells in peribronchial (PB) and perivascular (PV) lung tissue areas and in alveolar spaces was monitored following sacrifice of the animals.

A549 = experiment: MTT cytotoxicity assay on A549 cell line; format: cell-based
Description: (§1) To determine whether the anti-inflammatory activity of the test compounds was due to observed inhibition of cytokine production and inhibition of proliferation in vitro, and was not a consequence of cellular cytotoxicity, measurement of succinate dehydrogenase activity in living cells was performed. Cells were cultured for 24 h in RPMI medium as described above at 37° C. in the presence of the test compounds at concentrations of 50 μM and 12.5 μM. MTT [3-(4,5-dimethylthiazole-2-yl)-2,5-diphenyl tetrazolium bromide] (Promega, USA), a detection reagent, was then added and the cultures were incubated for 0.5-2 h. The amount of MTT-Formazan produced was determined using a spectrophotometer at 490 nm (Mosmann, J. Imnunol. Methods, 1983, 65: 55-63). Percentage of viable cells was calculated using the following formula:
(§2) % viable cells=([…]OD490 treated cells/OD490 nontreated cells)×100

Hep G2 = experiment: MTT cytotoxicity assay on Hep G2 cell line; format: cell-based
Description: as §1, §2

granulocytes = experiment: Inhibition of degranulation of granulocytes (elastase release); format: cell-based, human; conditions: for inhibition at 50 µM: Homo sapiens, read-out: Percentage of inhibition of degranulation of granulocytes
Description: Granulocytes were obtained from heparinized whole blood using density gradient centrifugation. Erythrocytes were sedimented on 3% dextran T-500 (Amersham Pharmacia Biotech AB, Uppsala, Sweden). Leukocytes were centrifuged on Ficoll (Amersham Pharmacia Biotech AB, Uppsala, Sweden) for 35 min at 600 g at 20° C. The pellet of granulocytes was cleared from remaining erythrocytes by a brief hypotonic lysis.
1×10^6 granulocytes, isolated as described above, were resuspended in RPMI-1640 medium (Institute of Immunology, Croatia), and were incubated with 10 or 50 μM of test compound together with cytochalasine B (5 μg/mL) for 2 h at 37° C. Degranulation then was induced by the addition of 0.1 μM fMLP (Sigma, USA) or 0.5 μM A23187 (Calbiochem, USA). The activity of free neutrophil elastase was determined with a chromogenic substrate specific for human neutrophil elastase, such as n-methoxysuccinyl-1-alanyl-1-alanyl-1-prolyl-lvalyl-p-niytoanlide (Sigma Chemical Company, St Louis, Mo., USA) Elastase activity, as a marker of primary granules, was assessed in supernatant using a spectrophotometer at an absorbance of 405 nm. Results are expressed as the percent of inhibition of degranulation in unstimulated cells, and in stimulated cells treated with fMLP or A23187.

IL-5 = experiment: Inhibition of IL-5 production by stimulated human PBMC in vitro; format: cell-based; conditions: PHA stimulated, 3 days
Description: (§3) Heparinized peripheral blood was obtained from healthy donors, and peripheral blood mononuclear cells (PBMC) were isolated by Histopaque 1077 (Sigma, USA) density centrifugation on 400 g for 30 minutes. Collected PBMC were centrifuged in plasma on 400 g/10 min, resuspended and washed in RPMI 1640 (Institute of Immunology, Croatia) by centrifugation.
(§4) Peripheral blood mononuclear cells (PBMC), isolated as described above, were seeded in a 48-well plate at a concentration of 1×10^6 cells per well in the RPMI culture medium described above. Cells were stimulated with 10 μg/mL phytohaemagglutinin (PHA) (Sigma, USA) and incubated at 37° C., 5% CO2 in 90% humidity with tested compounds (10 and 50 μM) for 3 days. Cytokine concentrations were determined in supernatants by sandwich ELISA, using capture and detection antibodies (R&D, USA) according to the manufacturer's recommendations.
(§5) Inhibition (as percentage) was calculated using the following formula: % inhibition=(1−concentration of cytokines in sample/concentration of cytokines in positive control)×100. The positive control refers to stimulated samples, not treated with substances.

IL-2 = experiment: Inhibition of IL-2 production by stimulated human PBMC in vitro; format: cell-based; conditions: PHA stimulated, 3 days
Description: as §3, §4, §5

[1] = A23187 0.5 μM stimulated, compound 50 μM
[2] = fMLP 0.1 μM stimulated, compound 50 μM
[3] = A23187 0.5 μM stimulated, compound 10 μM
[4] = fMLP 0.1 μM stimulated, compound 10 μM

| SMILES | TNF-α (% inhibition) (TNF-α) [%] | percentage of decrease of IL-6 concentration in BALF (Male BALB/cJ mice) | percentage of decrease of TNF-α concentration in BALF (Male BALB/cJ mice) | percentage of decrease of relative number of neutrophils (% of neutrophils) in BALF (Male BALB/cJ mice) | percentage of decrease of total cell number in BALF (Male BALB/cJ mice) | Percentage of viable cells after treatment (A549; human, 24 h, 12.5 μM) [%] | Percentage of viable cells after treatment (A549; human, 24 h, 50 μM) [%] | Percentage of viable cells after treatment (Hep G2; human, 24 h, 12.5 μM) [%] | Percentage of viable cells after treatment (Hep G2; human, 24 h, 50 μM) [%] | Percentage of inhibition of IL-5 production (IL-5; compound 10 μM) [%] | Percentage of inhibition of IL-5 production (IL-5; compound 50 μM) [%] | Percentage of inhibition of degranulation of granulocytes (granulocytes; [3]) [%] | Percentage of inhibition of degranulation of granulocytes (granulocytes; [1]) [%] | Percentage of inhibition of degranulation of granulocytes (granulocytes; [4]) [%] | Percentage of inhibition of degranulation of granulocytes (granulocytes; [2]) [%] | Percentage of inhibition of IL-2 production (IL-2; compound 10 μM) [%] | Percentage of inhibition of IL-2 production (IL-2; compound 50 μM) [%] | further results |
| --- | --- | --- | --- | --- | --- | --- | --- | --- | --- | --- | --- | --- | --- | --- | --- | --- | --- | --- |
| CC[C@H]1OC(=O)[C@H](C)[C@@H](O[C@H]2C[C@@](C)(OC)[C@@H](O)[C@H](C)O2)[C@H](C)[C@@H](O[C@@H]2O[C@H](C)C[C@H](N(C)C)[C@H]2O)[C@](C)(O)C[C@@H](C)CN(C)[C@H](C)[C@@H](O)[C@]1(C)O [Azithromycin, azithromycin, reference compound] | 54 | 72 | 66 | 37 | 77 | 100 | 100 | 100 | >95 |  |  |  |  |  |  |  |  | inhibition at 50 µM (granulocytes; [1]): 16%; inhibition at 50 µM (granulocytes; [2]): 36% |
| CC[C@H]1OC(=O)[C@H](C)[C@@H](O[C@H]2C[C@@](C)(OC)[C@@H](O)[C@H](C)O2)[C@H](C)[C@@H](O[C@@H]2O[C@H](C)C[C@H](N(C)C)[C@H]2O)[C@](C)(OC)C[C@@H](C)C(=O)[C@H](C)[C@@H](O)[C@]1(C)O [Clarithromycin, clarithromycin, reference compound] | 63 | 60 | 78 | 36 | 77 | 100 | 100 | 100 | 100 |  |  |  |  |  |  |  |  | inhibition at 10 µM (IL-5; Homo sapiens, 72 h, compound 10 μM, read-out: Percentage of inhibition of IL-5 production): 13%; inhibition at 50 µM (IL-5; Homo sapiens, 72 h, compound 50 μM, read-out: Percentage of inhibition of IL-5 production): 47%; inhibition at 10 µM (IL-2; Homo sapiens, 72 h, compound 10 μM, read-out: Percentage of inhibition of IL-2 production): 0%; inhibition at 50 µM (IL-2; Homo sapiens, 72 h, compound 50 μM, read-out: Percentage of inhibition of IL-2 production): 3% |
| CCC1OC(=O)C(C)C(O)C(C)C(OC2OC(C)CC(N(C)C)C2O)C(C)(O)CC(C)CN(C(=S)NCc2ccccc2)C(C)C(O)C1(C)O (stereo not shown) [Compound 1] | 31 | 28 | 41 | 9 | 50 |  |  |  |  | 14 | 73 | 20 | 27 | 37 | 72 | 61 | 95 |  |
| CCC1OC(=O)C(C)C(OC2CC(C)(OC)C(O)C(C)O2)C(C)C(OC2OC(C)CC(N(C)C)C2O)C(C)(O)CC(C)CN(C(=S)Nc2cccc(F)c2)C(C)C(O)C1(C)O (stereo not shown) [Compound 3] | 29 |  |  |  |  |  |  |  |  | 80 | 78 | 2 | 75 | 25 | 33 | 86 | 98 | Percentage of viable cells after treatment (A549; A549, 24 h, compound 12.5 μM): 100%; Percentage of viable cells after treatment (A549; A549, 24 h, compound 50 μM): >90%; Percentage of viable cells after treatment (Hep G2; Hep G2, 24 h, compound 12.5 μM): 100%; Percentage of viable cells after treatment (Hep G2; Hep G2, 24 h, compound 50 μM): >85% |
| CC[C@H]1OC(=O)[C@H](C)[C@@H](O[C@H]2C[C@@](C)(OC)[C@@H](O)[C@H](C)O2)[C@H](C)[C@@H](O[C@@H]2O[C@H](C)C[C@H](N(C)C)[C@H]2O)[C@](C)(O)C[C@@H](C)CN(C(=S)Nc2ccccc2F)[C@H](C)[C@@H](O)[C@]1(C)O [Compound 5] | 50 |  |  |  |  | 100 | 100 | 100 | 100 |  |  |  |  |  |  |  |  |  |
